Source: patent US6579874B2, “Substituted azoles” (Novartis AG, priority 1999, dated 2003)
pIC50: −log10 of the molar value. Where a name gives a salt, the structure may show the parent alone.

Assays:
[1] = tested on: TNF-α release from hPBMCs; assay: Assay for Inhibition of TNF-α Release from hPBMCs (IFNg/LPS stimulated, ELISA); type: cell-based; conditions: Homo sapiens, 3 h, IFNg (100 U/ml) and LPS, three hours, TNF-α in supernatant by ELISA, read-out: IC50 for suppression of TNF release
Protocol: Assay for Inhibition of TNF-α Release from hPBMCs
Human peripheral blood mononuclear cells (hPBMCs) are prepared from the peripheral blood of healthy volunteers using ficoll-hypaque density separation according to the method of Hansell et al., J. Imm. Methods (1991) 145: 105. and used at a concentration of 10^5 cells/well in RPMI 1640 plus 10% FCS. Cells are incubated with serial dilutions of the test compounds for 30 minutes at 37° C. prior to the addition of IFNg (100 U/ml) and LPS ([…]) and subsequently further incubated for three hours. Incubation is […] by centrifugation at 1400 RPM for 10 min. TNF-α in the supernatant is measured using a commercial ELISA (Innotest hTNFa, available from Innogenetics N.V., Zwijnaarde, Belgium). Agents of the Invention are tested at concentrations of from […]. Exemplified Agents of the Invention typical suppress TNF release in this assay with an IC50 of from about 500 nM to about 10 nM or less when tested in this assay.

p38 MAP kinase = biological target: T1, p38 MAP kinase (Mus musculus, UniProt P47811); assay: p38 MAP Kinase Assay (phosphorylation of GST-ATF-2, ELISA detection); type: biochemical, murine; conditions: His-p38 MAP kinase, GST-ATF-2 substrate, ATP 120 μM, 1 h at 37° C.; read-out: IC50 for p38 MAP kinase inhibition
T1 construct: a fusion protein comprising full length murine p38 MAP kinase and a His tag; host or cells: E. coli
Protocol: The substrate (GST-ATF-2; a fusion protein comprising amino acids 1-109 of ATF-2 and the GST protein obtained by expression in E. coli) is coated onto the webs of microtiter plates (50 μl/well; 1 μg/ml in PBS/0.02% Na azide) overnight at 4° C. The following day, the microtiter plates are washed four times with PBS/0.5% Tween 20/0.02% Na azide and are blocked with PBS/2% BSA/0.02% Na Azide for 1 h at 37° C. Plates are washed again 4 times with PBS/0.5% Tween 20/0.02% Na azide. The kinase cascade reaction is then started by adding the following reactants in 10 μl aliquots to a final reaction volume of 50 μl.
1. Agents of the Invention titrated from 10 to 0.001 μM in 10-fold dilutions or solvent (DMSO) or H2O.
2. Kinase buffer (5×); pH 7.4; 125 mM Hepes (Stock at 1M; Gibco #15630-056), 125 mM β-glycerophosphate (Sigma #G-6251):125 mM MgCl2 (Merck #5833); 0.5 mM Sodium orthovanadate (Sigma #5-6508), 10 mM DTT (Boehringer Mannheim #708992). The (5×) kinase buffer must be prepared fresh the day of the assay from 5× stock solutions kept at RT. DTT is kept at −20° C. and is added as the last reagent.
3. His-p38 MAP kinase (10 ng/well; Novartis—a fusion protein comprising full length murine p38 MAP kinase and a His tag, obtained by expression in E. coli)
4. cold ATP (final concentration 120 μM; Sigma #A-9187)
After 1 h at 37° C. the kinase reaction is terminated by washing the plates four times as previously described. Phosphorylated GST-ATF-2 is then detected by adding:
1. the PhosphoPlus ATF-2 (Thr71) Antibody (50 μl/well; 1/1000 final dilution in PBS/2% BSA/0.02% Na Azide; New England Biolabs #9221L) for 90 min at RT.
2. Biotin labelled goat-anti-rabbit IgG (50 μl/well; 1/3000 final dilution in PBS/2% BSA/0.02% Na Azide; Sigma #B-9642) for 90 min at RT.
3. Streptavidin-alkaline phosphatase (50 μl/well; 1/5000 dilution in PBS/2% BSA/0.02% Na Azide; Jackson Immunoresearch #016-050-84) for 30 min at RT.
4. Substrate (100 μl/well; Sigma 104 Phosphatase substrate tablets, 5 mg/tablet; #104-105; 1 mg/ml in substrate buffer, Diethanolamine (97 ml/l; Merck #803116)+MgCl2.6H2O (100 mg/l; Merck #5833)+Na Azide (0.2 g/l)+HCl 1M to pH 9.8) 30 min at RT.
After step 1, 2 and 3 the microtiter plates are washed four times with PBS/0.5% Tween 20/0.02% Na azide. After step 4, the plates are read in a Bio-Rad microplate reader in a dual wavelength mode (measurement filter […] and reference filter […]). The background value (without ATP) is subtracted and IC50 values are calculated using the Origin computer program (4 parameter logistic function).

T1 sequence (P47811 whole entry, the tested form may be a part): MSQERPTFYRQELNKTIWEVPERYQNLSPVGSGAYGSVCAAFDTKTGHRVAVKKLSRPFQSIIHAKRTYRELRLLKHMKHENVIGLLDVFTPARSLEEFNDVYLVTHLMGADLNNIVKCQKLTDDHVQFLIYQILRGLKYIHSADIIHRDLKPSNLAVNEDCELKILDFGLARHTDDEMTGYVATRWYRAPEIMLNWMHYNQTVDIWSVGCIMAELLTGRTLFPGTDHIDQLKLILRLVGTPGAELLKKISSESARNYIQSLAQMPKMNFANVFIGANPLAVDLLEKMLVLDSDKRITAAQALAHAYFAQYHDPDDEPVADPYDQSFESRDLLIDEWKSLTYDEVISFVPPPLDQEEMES

`C[C@H](Nc1nccc(-c2oc(C3CCN(C)CC3)nc2-c2ccc(F)cc2)n1)c1ccccc1` [Example 4] showed a pIC50 [1] of 8.00 to 9.00.

With `C[C@H](Nc1cc(-c2oc(C3(O)CCN(C)CC3)nc2-c2ccc(F)cc2)ccn1)c1ccccc1` [Example 14] the pIC50 (p38 MAP kinase) was 8.00 to 9.00.

`CC(C)(O)CN1CCC(c2nc(-c3ccc(F)cc3)c(-c3ccnc(NCC4CC4)c3)o2)CC1` [Example 20, 4-(4-Fluorophenyl)-2-(4-N-(2-hydroxy-2-methyl)propylpiperidine-1-yl)-5-(2-cyclopropylmethylamino-4-pyridyl)oxazole] showed a pIC50 [1] of 8.00 to 9.00.

For `C[C@H](Nc1nccc(-n2cc(C3CCN(C)CC3)nc2-c2ccc(F)cc2)n1)c1ccccc1` [Example 56, 2-(4-Fluorophenyl)-1-(2-(1-(S)-phenylethyl)amino-4-pyrimidyl)-4-(4-methyl)-piperidine-1-yl Imidazole], the pIC50 [1] was 8.00 to 9.00.

In the case of `Fc1ccc(-c2nc(C3CCNCC3)oc2-c2ccnc(NCC3CC3)c2)cc1` [Example 19, 4-(4-Fluorophenyl)-2-(4-NH-piperidine-1-yl)-5-(2-cyclopropylmethylamino-4-pyridyl)oxazole], the pIC50 [1] was 8.00 to 9.00.

In the case of `C[C@H](Nc1nccc(-n2cc(C3CCNCC3)nc2-c2ccc(F)cc2)n1)c1ccccc1` [Example 52], the pIC50 [1] was 8.00 to 9.00 and the pIC50 (p38 MAP kinase) was 8.00 to 9.00.

Molecule `CC(C)(O)CN1CCC(c2nc(-c3ccc(F)cc3)c(-c3ccnc(NC4CCCCC4)c3)o2)CC1` [Example 23, 4-(4-Fluorophenyl)-2-(4-N-(2-hydroxy-2-methyl)propylpiperidine-1-yl)-5-(2-cyclohexylamino-4-pyridyl)oxazole] has a pIC50 [1] of 8.00 to 9.00.

Molecule `C[C@H](Nc1nccc(-n2cc(/C=N/NC(=N)N)nc2-c2ccc(F)cc2)n1)c1ccccc1` [Example 50, 2-(4-Fluorophenyl)-1-(2-[1-(S)-phenyl-ethyl]amino-4-pyrimidyl)-4-methyleneaminoguanidinyl-imidazole] has a pIC50 [1] of 8.00 to 9.00.

Molecule `C[C@H](Nc1nccc(-n2cc(-c3cccc(Cl)c3)nc2-c2ccc(F)cc2)n1)c1ccccc1` [Example 49, 2-(4-Fluorophenyl)-1-(2-[1-(S)-phenyl-ethyl]amino-4-pyrimidyl)-4-(3-chlorophenyl)imidazole] has a pIC50 [1] of 8.00 to 9.00 and a pIC50 (p38 MAP kinase) of 8.00 to 9.00.

`C[C@H](Nc1nccc(-n2cc([C@]3(O)C[C@H]4CC[C@@H](C3)N4C(=O)OC(C)(C)C)nc2-c2ccc(F)cc2)n1)c1ccccc1` [Example 59, 2-(4-Fluorophenyl)-1-(2-(1-(S)-phenylethyl)amino-4-pyrimidyl)-4-(3a-hydroxy-N-tert.butyloxycarbonylnortropan-3b-yl)imidazole] showed a pIC50 [1] of 8.00 to 9.00.

Work on `Fc1ccc(-c2nc(C3CCNCC3)oc2-c2ccnc(NCC3CC3)n2)cc1` [Example 9, 4-(4-Fluorophenyl)-5-(2-cyclopropylmethylamino-4-pyrimidyl)-2-(4-NH-piperidin-1-yl)oxazole] yielded a pIC50 [1] of 8.00 to 9.00 and a pIC50 (p38 MAP kinase) of 8.00 to 9.00.

Work on `C[C@H](Nc1nccc(-n2cc(C3CCN(C=O)CC3)nc2-c2ccc(F)cc2)n1)c1ccccc1` [Example 53, 2-(4-Fluorophenyl)-1-(2-(1-(S)-phenylethyl)amino-4-pyrimidyl)-4-(4-formyl)-piperidine-1-yl Imidazole] yielded a pIC50 [1] of 8.00 to 9.00.

Work on `CN1CCC(O)(c2cn(-c3ccnc(NC4CC4)n3)c(-c3cccc(C(F)(F)F)c3)n2)CC1` [Example 32, 2-(3-Trifluoromethylphenyl)-4-(1-methyl-4-hydroxypiperidin-4-yl)-1-(2-cyclopropylamino-4-pyrimidyl)imidazole] yielded a pIC50 [1] of 8.00 to 9.00.

`CN1CCC(O)(c2cn(-c3ccnc(NC4CCCC4)n3)c(-c3cccc(C(F)(F)F)c3)n2)CC1` (as salt: fumarate) [Example 33, 2-(3-Trifluoromethylphenyl)-4-(1-methyl-4-hydroxypiperidin-4-yl)-1-(2-cyclopentylamino-4-pyrimidyl)imidazole] showed a melting point of 189 to 193 °C.

For `CN1CCC(O)(c2cn(-c3ccnc(NC4CCCC4)n3)c(-c3cccc(C(F)(F)F)c3)n2)CC1` [Example 33, 2-(3-Trifluoromethylphenyl)-4-(1-methyl-4-hydroxypiperidin-4-yl)-1-(2-cyclopentylamino-4-pyrimidyl)imidazole], the pIC50 [1] was 8.00 to 9.00.

For `CN1CCC(O)(c2nc(-c3ccc(F)cc3)c(-c3ccnc(NCC4CC4)c3)o2)CC1` [Example 15], the pIC50 (p38 MAP kinase) was 8.00 to 9.00.

`C[C@H](Nc1nccc(-c2oc(C3CCNCC3)nc2-c2ccc(F)cc2)n1)c1ccccc1` [Example 8, 4-(4-Fluorophenyl)-5-(2-[1-(S)-phenylethyl]amino-4-pyrimidyl)-2-(4-NH-piperidine-1-yl)oxazole] gave a pIC50 [1] of 8.00 to 9.00.

`CC(C)(O)CN1CCC(c2cn(-c3ccnc(NC4CCCC4)n3)c(-c3ccc(F)cc3)n2)CC1` [Example 55] showed a pIC50 [1] of 8.00 to 9.00.

`CCOC(=O)N1CCC(c2cn(-c3ccnc(N[C@@H](C)c4ccccc4)n3)c(-c3ccc(F)cc3)n2)CC1` [Example 51, 2-(4-Fluorophenyl)-1-(2-(1-(S)-phenylethyl)amino-4-pyrimidyl)-4-(4-ethoxycarbonyl)piperidine-1-yl Imidazole] gave a pIC50 [1] of 8.00 to 9.00 and a pIC50 (p38 MAP kinase) of 8.00 to 9.00.

In the case of `C[C@H](Nc1nccc(-n2cc(-c3ccncc3)nc2-c2ccc(F)cc2)n1)c1ccccc1` [Example 35, 2-(4-Fluorophenyl)-1-(2-[1-(S)-phenyl-ethyl]amino-4-pyrimidyl) 4-(4-pyridyl)imidazole], the pIC50 [1] was 8.00 to 9.00 and the pIC50 (p38 MAP kinase) was 8.00 to 9.00.

Molecule `CN1CCC(O)(c2cn(-c3ccnc(NC4CCCCC4)n3)c(-c3ccc(F)cc3)n2)CC1` [Example 31] has a pIC50 [1] of 8.00 to 9.00.

`C[C@H](Nc1nccc(-n2cc([C@]3(O)C[C@H]4CC[C@@H](C3)N4)nc2-c2ccc(F)cc2)n1)c1ccccc1` [Example 60, 2-(4-Fluorophenyl)-1-(2-(1-(S)-phenylethyl)amino-4-pyrimidyl)-4-(3a-hydroxy-nortropan-3b-yl)imidazole] showed a pIC50 [1] of 8.00 to 9.00.

`C[C@H](Nc1nccc(-n2cc(C3CCN(CC(C)(C)O)CC3)nc2-c2ccc(F)cc2)n1)c1ccccc1` [Example 54] showed a pIC50 [1] of 8.00 to 9.00.
